Laboratory results reported in ChEMBL document CHEMBL3885881, “DrugMatrix”.

Organism: Rattus norvegicus
Experiment: DrugMatrix - Regimen: Daily Repeat
Type: toxicity, organism-based, Sprague-Dawley
Parameters: regimen Daily Repeat, gender Male, age 6-8 weeks
Details: in vivo, po, 100 mg/kg, route oral GAVAGE, dose level Low, vehicle .5 % CMC; for ABSOLUTE BASOPHIL / ABSOLUTE EOSINOPHIL / ABSOLUTE LYMPHOCYTE / ABSOLUTE MONOCYTE / ABSOLUTE SEGMENTED NEUTROPHIL / BASOPHIL / EOSINOPHIL / ERYTHROCYTE COUNT / HEMATOCRIT / HEMOGLOBIN / LEUKOCYTE COUNT / LYMPHOCYTE / MEAN CORPUSCULAR HEMOGLOBIN / MEAN CORPUSCULAR HEMOGLOBIN CONCENTRATION / MEAN CORPUSCULAR VOLUME / MONOCYTE / NEUTROPHIL / NUCLEATED RED BLOOD CELLS / PLATELET COUNT: tissue Blood; for ALANINE AMINOTRANSFERASE / ALBUMIN / ALKALINE PHOSPHATASE / ASPARTATE AMINOTRANSFERASE / BLOOD UREA NITROGEN / CARBON DIOXIDE / CHLORIDE / CHOLESTEROL / CREATINE PHOSPHOKINASE / CREATININE / GLUCOSE / LACTATE DEHYDROGENASE / LIPASE / PHOSPHORUS / POTASSIUM / SODIUM / TOTAL BILIRUBIN / TOTAL PROTEIN / URIC ACID: tissue Plasma

`CC=Cc1ccc(O)c(OC)c1` [ISOEUGENOL] was tested, and the “ABSOLUTE BASOPHIL” value (72 h, time 3 day) was 0 CELLS/uL, the “ABSOLUTE EOSINOPHIL” value (72 h, time 3 day) was 0 CELLS/uL and the “ABSOLUTE LYMPHOCYTE” value (72 h, time 3 day) was 15444.33 CELLS/uL. The “ABSOLUTE MONOCYTE” value (72 h, time 3 day) was 342 CELLS/uL, the “ABSOLUTE SEGMENTED NEUTROPHIL” value (72 h, time 3 day) was 1847 CELLS/uL and the BASOPHIL (72 h, time 3 day) was 0%. The EOSINOPHIL (72 h, time 3 day) was 0%, the “ERYTHROCYTE COUNT” value (72 h, time 3 day) was 5.62 x10E6/uL and the HEMATOCRIT (72 h, time 3 day) was 36.7%. For the same compound, the HEMOGLOBIN (72 h, time 3 day) was 13.83 G/DL, the “LEUKOCYTE COUNT” value (72 h, time 3 day) was 17.63 x10E3/uL and the LYMPHOCYTE (72 h, time 3 day) was 87.33%. The “MEAN CORPUSCULAR HEMOGLOBIN” value (72 h, time 3 day) was 24.63 pg, the “MEAN CORPUSCULAR HEMOGLOBIN CONCENTRATION” value (72 h, time 3 day) was 37.77 G/DL and the “MEAN CORPUSCULAR VOLUME” value (72 h, time 3 day) was 65.23 fL. For the same compound, the MONOCYTE (72 h, time 3 day) was 2%, the NEUTROPHIL (72 h, time 3 day) was 10.67% and the “NUCLEATED RED BLOOD CELLS” value (72 h, time 3 day) was 0 /100WBC. The “PLATELET COUNT” value (72 h, time 3 day) was 1262 x10E3/uL, the “ALANINE AMINOTRANSFERASE” value (72 h, time 3 day) was 53.33 u/L and the ALBUMIN (72 h, time 3 day) was 4.73 G/DL. The “ALKALINE PHOSPHATASE” value (72 h, time 3 day) was 338.67 u/L, the “ASPARTATE AMINOTRANSFERASE” value (72 h, time 3 day) was 88.33 u/L and the “BLOOD UREA NITROGEN” value (72 h, time 3 day) was 17.67 mg/dL. For the same compound, the “CARBON DIOXIDE” value (72 h, time 3 day) was 23.67 mmol/L, the CHLORIDE (72 h, time 3 day) was 102 MEQ/L and the CHOLESTEROL (72 h, time 3 day) was 66.67 mg/dL. The “CREATINE PHOSPHOKINASE” value (72 h, time 3 day) was 312.33 u/L, the CREATININE (72 h, time 3 day) was 0.17 mg/dL and the GLUCOSE (72 h, time 3 day) was 143 mg/dL. The “LACTATE DEHYDROGENASE” value (72 h, time 3 day) was 280.33 u/L, the LIPASE (72 h, time 3 day) was 9.33 u/L and the PHOSPHORUS (72 h, time 3 day) was 11.33 mg/dL. The POTASSIUM (72 h, time 3 day) was 6.23 MEQ/L, the SODIUM (72 h, time 3 day) was 144.93 MEQ/L and the “TOTAL BILIRUBIN” value (72 h, time 3 day) was 0.23 mg/dL. The “TOTAL PROTEIN” value (72 h, time 3 day) was 5.83 G/DL, the “URIC ACID” value (72 h, time 3 day) was 1.8 mg/dL and the “ABSOLUTE BASOPHIL” value (120 h, time 5 day) was 0 CELLS/uL. For the same compound, the “ABSOLUTE EOSINOPHIL” value (120 h, time 5 day) was 450 CELLS/uL, the “ABSOLUTE LYMPHOCYTE” value (120 h, time 5 day) was 12545.67 CELLS/uL and the “ABSOLUTE MONOCYTE” value (120 h, time 5 day) was 392.67 CELLS/uL. For the same compound, the “ABSOLUTE SEGMENTED NEUTROPHIL” value (120 h, time 5 day) was 1645 CELLS/uL, the BASOPHIL (120 h, time 5 day) was 0% and the EOSINOPHIL (120 h, time 5 day) was 3%. For the same compound, the “ERYTHROCYTE COUNT” value (120 h, time 5 day) was 5.9 x10E6/uL, the HEMATOCRIT (120 h, time 5 day) was 36% and the HEMOGLOBIN (120 h, time 5 day) was 13.27 G/DL. The “LEUKOCYTE COUNT” value (120 h, time 5 day) was 15.03 x10E3/uL, the LYMPHOCYTE (120 h, time 5 day) was 83.33% and the “MEAN CORPUSCULAR HEMOGLOBIN” value (120 h, time 5 day) was 22.57 pg. For the same compound, the “MEAN CORPUSCULAR HEMOGLOBIN CONCENTRATION” value (120 h, time 5 day) was 36.83 G/DL, the “MEAN CORPUSCULAR VOLUME” value (120 h, time 5 day) was 61.17 fL and the MONOCYTE (120 h, time 5 day) was 2.67%. The NEUTROPHIL (120 h, time 5 day) was 11%, the “NUCLEATED RED BLOOD CELLS” value (120 h, time 5 day) was 0 /100WBC and the “PLATELET COUNT” value (120 h, time 5 day) was 1402 x10E3/uL. For the same compound, the “ALANINE AMINOTRANSFERASE” value (120 h, time 5 day) was 47.67 u/L, the ALBUMIN (120 h, time 5 day) was 4.37 G/DL and the “ALKALINE PHOSPHATASE” value (120 h, time 5 day) was 345.67 u/L. The “ASPARTATE AMINOTRANSFERASE” value (120 h, time 5 day) was 83.33 u/L, the “BLOOD UREA NITROGEN” value (120 h, time 5 day) was 18 mg/dL and the “CARBON DIOXIDE” value (120 h, time 5 day) was 23.67 mmol/L. The CHLORIDE (120 h, time 5 day) was 109.67 MEQ/L, the CHOLESTEROL (120 h, time 5 day) was 58 mg/dL and the “CREATINE PHOSPHOKINASE” value (120 h, time 5 day) was 251.33 u/L. For the same compound, the CREATININE (120 h, time 5 day) was 0.21 mg/dL, the GLUCOSE (120 h, time 5 day) was 141 mg/dL and the “LACTATE DEHYDROGENASE” value (120 h, time 5 day) was 180.67 u/L. The LIPASE (120 h, time 5 day) was 9 u/L, the PHOSPHORUS (120 h, time 5 day) was 11.17 mg/dL and the POTASSIUM (120 h, time 5 day) was 6.1 MEQ/L. The SODIUM (120 h, time 5 day) was 146.53 MEQ/L, the “TOTAL BILIRUBIN” value (120 h, time 5 day) was 0.2 mg/dL and the “TOTAL PROTEIN” value (120 h, time 5 day) was 6.13 G/DL. For the same compound, the “URIC ACID” value (120 h, time 5 day) was 1.57 mg/dL.
